Measurements: publication PMC4931022, “Arginine demethylation is catalysed by a subset of JmjC histone lysine demethylases” (Nature Communications, 2016)
Blank lines part the entries; values can stand above or below the substance they belong to.

Columns and labels:
Type in all cases: biochemical
KDM4E [1] = target: T1, KDM4E (Homo sapiens, UniProt B2RXH2); assay: MALDI MS activity assay, recombinant KDM4E catalytic domain; conditions: peptide 10 μM, 1 h, 37 °C, MALDI-TOF MS; for demethylation, in words: KDM4E catalytic domain 2 μM; for observed arginine demethylation activity: KDM4E 2 μM, 2OG 200 μM, ascorbate 100 μM, Fe(II) 10 μM, 50 mM HEPES pH 7.5, −14 Da shift
T1 construct: His6 (N); made in house; host or cells: Escherichia coli
T1 sequence (B2RXH2 1-337): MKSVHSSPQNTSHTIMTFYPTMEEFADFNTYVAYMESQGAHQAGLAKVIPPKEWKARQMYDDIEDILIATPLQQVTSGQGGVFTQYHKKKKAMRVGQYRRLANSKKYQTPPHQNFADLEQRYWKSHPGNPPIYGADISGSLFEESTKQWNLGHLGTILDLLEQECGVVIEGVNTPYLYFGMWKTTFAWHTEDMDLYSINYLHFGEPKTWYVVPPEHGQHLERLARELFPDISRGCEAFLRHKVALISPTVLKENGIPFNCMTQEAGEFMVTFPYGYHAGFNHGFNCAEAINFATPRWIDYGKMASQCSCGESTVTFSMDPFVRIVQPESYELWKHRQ
Protocol: (§1) MALDI MS activity assays. Recombinant proteins (2 μM) were incubated with peptides (10 μM, sequences are given in Supplementary Table 1) and cofactors/substrates for 1 h at 37 °C, unless otherwise specified. Reactions were quenched with 1:1 (v/v) methanol and analysed with MALDI MS. Assay conditions for each enzyme are given in Supplementary Table 2. Negative controls without enzyme were included.
(§2) Supplementary Table 2 Assay conditions with truncated recombinant protein. […]

KDM5C [2] = target: T2, KDM5C (Homo sapiens, UniProt P41229); assay: MALDI MS activity assay, recombinant KDM5C catalytic domain; conditions: peptide 10 μM, 1 h, 37 °C, MALDI-TOF MS; for demethylation, in words: KDM5C catalytic domain 2 μM; for observed arginine demethylation activity: KDM5C 2 μM, 2OG 100 μM, ascorbate 100 μM, Fe(II) 10 μM, 50 mM HEPES pH 7.5, −14 Da shift
T2 construct: KDM5C1–765 was produced as an N-terminally His6-tagged protein in Sf9 cells; His6 (N); made in house; host or cells: Sf9 cells (provided by the Structural Genomics Consortium)
T2 sequence (P41229 1-765): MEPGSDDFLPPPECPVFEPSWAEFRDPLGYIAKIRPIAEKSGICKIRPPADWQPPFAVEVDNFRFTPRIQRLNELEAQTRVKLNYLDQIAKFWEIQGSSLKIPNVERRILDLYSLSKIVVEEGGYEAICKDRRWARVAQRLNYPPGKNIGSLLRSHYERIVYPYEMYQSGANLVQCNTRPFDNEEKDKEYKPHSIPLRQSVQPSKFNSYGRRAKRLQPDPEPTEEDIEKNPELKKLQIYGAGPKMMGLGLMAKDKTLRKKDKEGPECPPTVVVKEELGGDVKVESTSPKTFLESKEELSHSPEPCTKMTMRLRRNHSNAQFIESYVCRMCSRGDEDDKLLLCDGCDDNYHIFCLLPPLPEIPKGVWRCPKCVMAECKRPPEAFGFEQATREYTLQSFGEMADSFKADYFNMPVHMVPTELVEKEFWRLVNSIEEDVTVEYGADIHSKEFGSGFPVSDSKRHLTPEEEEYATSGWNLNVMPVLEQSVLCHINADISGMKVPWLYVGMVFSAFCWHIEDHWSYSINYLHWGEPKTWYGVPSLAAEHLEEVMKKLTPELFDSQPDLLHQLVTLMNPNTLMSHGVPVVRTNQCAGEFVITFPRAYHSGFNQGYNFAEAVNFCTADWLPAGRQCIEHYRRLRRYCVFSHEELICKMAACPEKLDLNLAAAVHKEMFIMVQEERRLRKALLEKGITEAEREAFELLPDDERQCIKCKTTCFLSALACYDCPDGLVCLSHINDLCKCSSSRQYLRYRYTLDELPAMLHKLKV
Protocol: as §1, §2

KDM3A [3] = target: T3, KDM3A (Homo sapiens, UniProt Q9Y4C1); assay: MALDI MS activity assay, recombinant KDM3A catalytic domain; conditions: KDM3A 2 μM, peptide 10 μM, 1 h, 37 °C, 2OG 100 μM, ascorbate 100 μM, Fe(II) 50 μM, 50 mM HEPES pH 7.5; MALDI-TOF MS, −14 Da shift
T3 construct: KDM3A515–1,317; His6 (N); made in house; host or cells: Sf9 cells
T3 sequence (Q9Y4C1 515-1317 limits assumed): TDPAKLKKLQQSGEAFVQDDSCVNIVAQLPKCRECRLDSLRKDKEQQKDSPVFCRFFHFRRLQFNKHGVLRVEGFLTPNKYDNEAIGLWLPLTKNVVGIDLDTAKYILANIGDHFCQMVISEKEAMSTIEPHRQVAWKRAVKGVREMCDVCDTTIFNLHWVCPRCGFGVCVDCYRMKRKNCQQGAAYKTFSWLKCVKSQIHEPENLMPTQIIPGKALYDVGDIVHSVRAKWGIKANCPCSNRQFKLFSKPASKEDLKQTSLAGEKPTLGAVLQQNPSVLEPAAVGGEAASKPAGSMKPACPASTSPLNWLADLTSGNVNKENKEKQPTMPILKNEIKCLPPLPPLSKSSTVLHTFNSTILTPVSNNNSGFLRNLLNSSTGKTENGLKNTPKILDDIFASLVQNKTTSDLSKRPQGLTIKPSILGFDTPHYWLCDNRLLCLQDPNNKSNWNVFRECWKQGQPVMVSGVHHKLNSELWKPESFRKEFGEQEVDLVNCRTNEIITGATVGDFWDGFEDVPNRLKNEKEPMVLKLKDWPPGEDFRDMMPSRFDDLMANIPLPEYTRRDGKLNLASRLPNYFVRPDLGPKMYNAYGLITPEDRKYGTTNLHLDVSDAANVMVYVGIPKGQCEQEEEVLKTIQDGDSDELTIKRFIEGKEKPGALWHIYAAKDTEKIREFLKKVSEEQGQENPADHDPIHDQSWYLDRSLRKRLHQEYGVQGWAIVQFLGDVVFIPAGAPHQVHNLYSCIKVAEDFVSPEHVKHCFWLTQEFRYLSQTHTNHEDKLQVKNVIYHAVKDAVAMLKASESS
Protocol: as §1
(§3) Supplementary Table 2 Assay conditions with truncated recombinant protein.
(§4) Supplementary Table 3 Assay conditions with full length Flag-tagged KDMs.

KDM6B = target: T4, KDM6B (Homo sapiens, UniProt O15054); assay: MALDI MS activity assay, recombinant KDM6B catalytic domain; conditions: KDM6B 2 μM, peptide 10 μM, 1 h, 37 °C, 2OG 100 μM, ascorbate 100 μM, Fe(II) 10 μM, 50 mM HEPES pH 7.5, 150 mM NaCl; MALDI-TOF MS, −14 Da shift
T4 construct: His6 (N); made in house; host or cells: Escherichia coli
T4 sequence (O15054 1141-1590 limits assumed): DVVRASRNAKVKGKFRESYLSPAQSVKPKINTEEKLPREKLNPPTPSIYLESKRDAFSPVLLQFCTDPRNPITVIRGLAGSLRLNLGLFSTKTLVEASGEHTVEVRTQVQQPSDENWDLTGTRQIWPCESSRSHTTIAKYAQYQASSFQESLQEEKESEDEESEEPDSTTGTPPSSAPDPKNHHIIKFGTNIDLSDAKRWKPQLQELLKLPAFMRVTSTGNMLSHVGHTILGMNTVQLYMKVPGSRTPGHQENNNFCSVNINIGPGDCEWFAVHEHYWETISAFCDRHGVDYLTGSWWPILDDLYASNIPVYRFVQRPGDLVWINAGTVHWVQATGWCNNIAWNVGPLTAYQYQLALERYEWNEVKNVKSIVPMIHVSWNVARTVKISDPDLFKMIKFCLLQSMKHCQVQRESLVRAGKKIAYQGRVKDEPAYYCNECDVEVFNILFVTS
Protocol: as §1, §3, §4

KDM5C [4] = target: T2, KDM5C; assay: Formaldehyde dehydrogenase-coupled demethylation assay, KDM5C; conditions: for kcat / Km: KDM5C catalytic domain, apparent, preliminary, 37 °C, mean±s.e.m., n=3; for kcat: FDH/NAD+-coupled assay; for Km: FDH/NAD+-coupled formaldehyde assay, 2OG 200 μM, Fe(II) 10 μM, ascorbate 100 μM; for kcat/KM: KDM5C, calculated from the average kcat and KM values, μM^−1 s^−1 for this quantity
Protocol: (§5) Formaldehyde dehydrogenase-coupled assays. Preliminary kinetic parameters were determined by detection of the formaldehyde by-product of the demethylation reaction using a FDH (formaldehyde dehydrogenase-coupled)/NAD^+-coupled assay as previously described. Assays were carried out in buffer (enzyme-dependent) with the addition of Fe(II) ammonium sulfate (10 μM), sodium ascorbate (100 μM), 2OG (200 μM), NAD^+ (500 μM), enzyme (0.2–4 μM) and FDH enzyme (0.025 U per assay, Sigma-Aldrich; total volume 30 μl) and were conducted at 37 °C in clear-bottom black 384-well plates. […] The Km and Vmax values were calculated from the reaction rate during the linear phase of formaldehyde production, as determined by the slope of the fluorescence signal recorded.

KDM3A [5] = target: T3, KDM3A; assay: Formaldehyde dehydrogenase-coupled demethylation assay, KDM3A; conditions: for kcat / Km: KDM3A catalytic domain, apparent, preliminary, 37 °C, mean±s.e.m., n=3; for kcat: FDH/NAD+-coupled assay; for Km: FDH/NAD+-coupled formaldehyde assay, 2OG 200 μM, Fe(II) 10 μM, ascorbate 100 μM, fluorescence 355/460 nm; for kcat/KM: KDM3A, calculated from the average kcat and KM values, μM^−1 s^−1 for this quantity
Protocol: as §5

KDM4E [6] = target: T1, KDM4E; assay: Formaldehyde dehydrogenase-coupled demethylation assay, KDM4E; conditions: for Km: FDH/NAD+-coupled formaldehyde assay, 2OG 200 μM, Fe(II) 10 μM, ascorbate 100 μM
Protocol: as §5

[7] = KDM4E catalytic domain, apparent, preliminary, FDH/NAD+-coupled assay, 37 °C, mean±s.e.m., n=3
[8] = KDM4E catalytic domain, apparent, preliminary, 37 °C, mean±s.e.m., n=3
[9] = KDM4E, calculated from the average kcat and KM values, μM^−1 s^−1 for this quantity

- demethylation, in words (KDM4E [1]): not observed to be a KDM substrate
- demethylation, in words (KDM4E [1]; listed as H3(1–15)R2Kme3): no demethylation activity
- demethylation, in words (KDM5C [2]): not observed to be a KDM substrate
- demethylation, in words (KDM5C [2]; listed as H3(1–15)R2Kme3): no demethylation activity
Substance: A-Kme3-TKQTARKSTGGKA [H3R2Kme3, histone H3 peptide with trimethyllysine substituted for R2]

- observed arginine demethylation activity (KDM3A [3]): −
- observed arginine demethylation activity (KDM4E [1]): +
- observed arginine demethylation activity (KDM5C [2]): +
- observed arginine demethylation activity (KDM6B): −
Substance: A-Rme-TKQTARKSTGGKA [H3 (1–15) R2me, 'natural' histone H3 peptide monomethylated at R2]

Substance: ART-Kme3-QTARKSTGGKA [H3(1-15)K4me3, recognized histone H3 N-methylated-lysine peptide substrate for KDM5C, reference compound]
- kcat (KDM5C [4]): 67.1±10.3 × 10^−3 s^−1
- Km (KDM5C [4]): 7.6 ± 2.9 µM
- kcat/KM (KDM5C [4]): 8,800 × 10^−6

Substance: ART-Rme2a-QTARKSTGGKA [H3(1-15)K4Rme2a, histone H3 fragment with asymmetric dimethylarginine replacing methylated K4]
- kcat (KDM5C [4]): 41.2±3.5 × 10^−3 s^−1
- Km (KDM5C [4]): 29 ± 0.5 µM
- kcat/KM (KDM5C [4]): 1,420.0 × 10^−6

Substance: ART-Rme2s-QTARKSTGGKA [H3(1-15)K4Rme2s, histone H3 fragment with symmetric dimethylarginine replacing methylated K4]
- kcat (KDM5C [4]): 4.6±0.7 × 10^−3 s^−1
- Km (KDM5C [4]): 21.1 ± 5.8 µM
- kcat/KM (KDM5C [4]): 219.0 × 10^−6

Substance: ARTKQTAR-Rme2a-STGGKA (ARTKQTARRSTGGKA; asymmetric dimethylarginine at 9; C-terminal amide) [H3(1-15)K9Rme2a, histone H3 fragment with asymmetric dimethylarginine replacing methylated K9]
- kcat (KDM3A [5]): 5.0±0.6 × 10^−3 s^−1
- Km (KDM3A [5]): 11.6 ± 1.4 µM
- kcat/KM (KDM3A [5]): 430.7 × 10^−6
- kcat/KM (KDM4E [6]; KDM4E): 7.04e-05 µM⁻¹ s⁻¹
- kcat (KDM4E [6]; [7]): 4.6±0.7 × 10^−3 s^−1
- Km (KDM4E [6]; [8]): 66 ± 5 µM
- kcat/KM (KDM4E [6]; [9]): 70.4 × 10^−6

Substance: ARTKQTAR-Rme2s-STGGKA (ARTKQTARRSTGGKA; symmetric dimethylarginine at 9; C-terminal amide) [H3(1-15)K9Rme2s, histone H3 fragment with symmetric dimethylarginine replacing methylated K9]
- kcat (KDM3A [5]): 3.0±0.3 × 10^−3 s^−1
- Km (KDM3A [5]): 23.7 ± 1.9 µM
- kcat/KM (KDM3A [5]): 126.5 × 10^−6
- kcat/KM (KDM4E [6]; KDM4E): 8.59e-05 µM⁻¹ s⁻¹
- kcat (KDM4E [6]; [7]): 8.7±0.3 × 10^−3 s^−1
- Km (KDM4E [6]; [8]): 101 ± 11 µM
- kcat/KM (KDM4E [6]; [9]): 85.9 × 10^−6

Substance: ARTKQTAR-Rme-STGGKA (ARTKQTARRSTGGKA; monomethylarginine at 9; C-terminal amide) [H3(1-15)K9Rme, histone H3 fragment with monomethylarginine replacing methylated K9]
- kcat (KDM3A [5]): 11.0±1.2 × 10^−3 s^−1
- Km (KDM3A [5]): 12.1 ± 3.1 µM
- kcat/KM (KDM3A [5]): 907.6 × 10^−6
- kcat (KDM4E [6]; [7]): 2.7±0.2 × 10^−3 s^−1
- Km (KDM4E [6]; [8]): 169 ± 35.9 µM
- kcat (KDM4E [6]; KDM4E, FDH-coupled assay): 0.0027 ± 0.0002 s⁻¹
- kcat/KM (KDM4E [6]; [9]): 15.9 × 10^−6

- observed arginine demethylation activity (KDM3A [3]): −
- observed arginine demethylation activity (KDM4E [1]): +
- observed arginine demethylation activity (KDM5C [2]): −
- observed arginine demethylation activity (KDM6B): −
Substance: KQLATKAA-Rme2a-KSAPAT [H3 (18–32) R26me2a, 'natural' histone H3 peptide asymmetrically dimethylated at R26]

- observed arginine demethylation activity (KDM3A [3]): −
- observed arginine demethylation activity (KDM4E [1]): +
- observed arginine demethylation activity (KDM5C [2]): −
- observed arginine demethylation activity (KDM6B): −
Substance: KQLATKAA-Rme-KSAPAT [H3 (18–32) R26me, 'natural' histone H3 peptide monomethylated at R26]

- demethylation, in words (KDM4E [1]): low levels of demethylation
- demethylation, in words (KDM5C [2]): low levels of demethylation
Substance: SG-Rme2a-GKGGKGLGKGGAK [H4R3me2a]
